Data as given in patent publication US20090192095A1 (priority 2008, published 2009).
Values joined by “and” are separate entries in the source; they are usually repeats but may differ in a detail not shown here. Equal entries are not always repeated. Structures can show the parent of a compound that is named as a salt. Where two headings read alike, the source gives them in different places.

How the values were obtained:
[1] = for Simulated gastric fluid (pH 1.1): % remaining after 2 h/37° C. / Simulated intestinal fluid (pH 6.8): % remaining after 2 h/37° C.: simulated gi fluid
ferret = details: for Total number of individual incidences of: Retching / Total number of individual incidences of: Vomiting: individual ferrets, 150 mg/kg oral, naloxone 0.5 mg/kg s.c. pretreatment, observed 2 hours
acetyl choline esterase = acetyl choline esterase (Homo sapiens, UniProt P22303); experiment: In vitro assessment with a human acetyl choline esterase preparation; format: biochemical
[2] = system: rat colon circular muscle strips; format: cell-based; set-up: unit not given here; details: rat colonic strips, EFS
[3] = system: human colon circular muscle strips; format: cell-based; details: human colonic strips, EFS
[4] = Beagle, dog, in vivo, po, 1 mg/kg
[5] = system: guinea pig small intestine myenteric plexus longitudinal muscle; experiment: tissue or blood; format: cell-based; details: for EC50: Cavia porcellus, read-out: EC50 for inhibition of contractility
[6] = system: gastro-intestinal motility in the rat; experiment: Charcoal propulsion test (gastro-intestinal motility) in the rat; details: oral; for delay of the passage of the charcoal meal (gut motility): 30 mg/kg dose or equimolar dose of prodrug
[7] = listed as meptazinol valine carbamate
[8] = female, ferret, in vivo, po, 150 mg/kg
[9] = 10 mg/kg, 60 min before charcoal, 30 min after charcoal

acetyl choline esterase, sequence (P22303 32-614): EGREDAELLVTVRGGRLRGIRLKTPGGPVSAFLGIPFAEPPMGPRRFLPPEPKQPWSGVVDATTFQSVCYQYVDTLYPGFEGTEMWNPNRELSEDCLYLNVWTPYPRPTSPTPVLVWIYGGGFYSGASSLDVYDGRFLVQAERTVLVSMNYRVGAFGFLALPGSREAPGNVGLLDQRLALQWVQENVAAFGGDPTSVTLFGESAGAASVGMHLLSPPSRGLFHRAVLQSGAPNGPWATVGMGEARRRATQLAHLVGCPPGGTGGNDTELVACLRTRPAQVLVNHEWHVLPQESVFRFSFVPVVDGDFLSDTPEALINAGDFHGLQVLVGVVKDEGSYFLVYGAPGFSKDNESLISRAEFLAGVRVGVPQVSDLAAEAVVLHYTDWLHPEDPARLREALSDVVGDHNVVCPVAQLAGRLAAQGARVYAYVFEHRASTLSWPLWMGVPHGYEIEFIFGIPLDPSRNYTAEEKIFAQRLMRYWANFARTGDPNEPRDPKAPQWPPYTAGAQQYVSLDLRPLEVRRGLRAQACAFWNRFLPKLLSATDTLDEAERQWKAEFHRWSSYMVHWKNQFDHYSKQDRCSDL

## CC(C)[C@@H](NC(=O)OC1=C2OC3C(=O)CCC4[C@H]5CC(CC1)C2[C@@]34CCN5C)C(=O)O (stereo partly drawn) [Hydromorphone valine carbamate, hydromorphone-(S)-valine carbamate trifluoroacetate]
[1]
  Distilled water (pH 5.9): % remaining after 2 h/20° C.: 100%
  Simulated gastric fluid (pH 1.1): % remaining after 2 h/37° C.: 100%
  Simulated intestinal fluid (pH 6.8): % remaining after 2 h/37° C.: 98%

## CCC1(c2cccc(OC(=O)N[C@H](C(=O)O)C(C)C)c2)CCCCN(C)C1 (stereo partly drawn) [Meptazinol valine carbamate, meptazinol-(S)-valine carbamate trifluoroacetate]
ferret; group of five ferrets, comparable molar dose, 2 hours
  animals demonstrating any retching and vomiting: only one
ferret
  Total number of individual incidences of: Retching: 0 (4×) and 2
  Total number of individual incidences of: Vomiting: 0 (4×) and 1
ferret; [7]
  Total number of individual incidences of: Retching: 2
  Total number of individual incidences of: Vomiting: 1
Acetyl choline esterase
  acetyl choline esterase inhibitory action: loss of acetyl choline esterase inhibitory action
[2]; 0.01 μM
  Mean force of contraction ± sd: 104.47
[2]; 0.1 μM
  Mean force of contraction ± sd: 121.87
[2]; 0.5 μM
  Mean force of contraction ± sd: 86.04
[2]; 1.0 μM
  Mean force of contraction ± sd: 75.22
[2]; 10 μM
  Mean force of contraction ± sd: 65.57
[2]; 100 μM
  Mean force of contraction ± sd: 75.17
[1]
  Distilled water (pH 5.9): % remaining after 2 h/20° C.: 100%
  Simulated gastric fluid (pH 1.1): % remaining after 2 h/37° C.: 100%
  Simulated intestinal fluid (pH 6.8): % remaining after 2 h/37° C.: 99%
[3]; 0.01 μM
  Mean force of contraction ± sd: 89.77
[3]; 0.1 μM
  Mean force of contraction ± sd: 83.63
[3]; 0.5 μM
  Mean force of contraction ± sd: 79.00
[3]; 1.0 μM
  Mean force of contraction ± sd: 80.56
[3]; 10 μM
  Mean force of contraction ± sd: 76.92
[3]; 100 μM
  Mean force of contraction ± sd: 79.25

## CCC1(c2cccc(O)c2)CCCCN(C)C1 (stereo not drawn) [Meptazinol]
ferret; [8]
  animals that exhibited retching and emesis: 50%
  episodes of vomiting in animals that responded: 1-17
  retches observed in a 2 hour period in animals that responded: 5-66
[4]
  T½: 2.8 h

## CC(C)C(NC(=O)Oc1ccc2c3c1O[C@H]1C(=O)CC[C@@]4(O)[C@@H](C2)N(C)CC[C@]314)C(=O)O (stereo partly drawn) [Oxymorphone valine carbamate, oxymorphone-(S)-valine carbamate hydrochloride]
[5]
  Fold difference: 15.5
  EC50: 200 nM
[6]; 10 mg/kg
  % change from vehicle-treated animals, Small intestine: −4.9%
  % change from vehicle-treated animals, Total gut length: −3.9%
[6]; [9]
  Group mean distance travelled by charcoal as % of (±sd) Small intestine: 68.5 ± 7.85%
  Group mean distance travelled by charcoal as % of (±sd) Total gut length: 58.9 ± 6.95%
[6]; 30 mg/kg
  % change from vehicle-treated animals, Small intestine: −13.7%
  % change from vehicle-treated animals, Total gut length: −13.1%
[6]
  delay of the passage of the charcoal meal (gut motility): 14%
[1]
  Distilled water (pH 5.9): % remaining after 2 h/20° C.: 100%
  Simulated gastric fluid (pH 1.1): % remaining after 2 h/37° C.: 100%
  Simulated intestinal fluid (pH 6.8): % remaining after 2 h/37° C.: 97%

## CN1CC[C@]23c4c5ccc(O)c4O[C@H]2C(=O)CC[C@@]3(O)[C@H]1C5 [Oxymorphone]
[5]
  EC50: 12.9 nM
[6]; 1 mg/kg
  % change from vehicle-treated animals, Small intestine: −5.0%
  % change from vehicle-treated animals, Total gut length: −4.5%
[6]; 3 mg/kg
  % change from vehicle-treated animals, Small intestine: −9.5%
  % change from vehicle-treated animals, Total gut length: −9.4%
[6]; 10 mg/kg
  % change from vehicle-treated animals, Small intestine: −24.1%
  % change from vehicle-treated animals, Total gut length: −24.1%
[6]; 30 mg/kg
  % change from vehicle-treated animals, Small intestine: −69.5%
  % change from vehicle-treated animals, Total gut length: −69.8%
[6]
  delay of the passage of the charcoal meal (gut motility): 70%
[4]
  T½: 2.2 h
